Assay results reported in US10975042B2, “Method for purifying an amino acid-n-carboxy anhydride” (SHIN-ETSU CHEMICAL CO., LTD., priority 2018, dated 2021).

Assay: Long-term storage stability of NCA, purity by DSC
Type: physicochemical
Conditions: for Purity after purification / Purity after 1 month from purification / Purity after 2 months from purification / Purity after a half year from purification / Purity after 1 year from purification / Purity after 2 years from purification: DSC
Procedure: In Examples and Comparative Examples, the purity of each NCA was measured using differential scanning calorimeter (DSC) in accordance with 2.52 thermal analysis method of The Japanese Pharmacopoeia, 17th ed. (2.4.4. measurement of purity). The measurement was performed using Thermo plus EVO DSC8230 (manufactured by Rigalu Corporation) as a measurement apparatus with the sample amount of 1 mg at a temperature increasing rate of 1° C./minute. Incidentally, it is conceived that precise measurement cannot be guaranteed unless the purity is 98 mol % or more according to 2.52 thermal analysis method of The Japanese Pharmacopoeia, 17th ed. (2.4.4. measurement of purity).
Each purified NCA was evaluated for long-term storage stability. […] Regarding the conditions of −20±5° C., the results of purity measured by DSC at after a half year, after 1 year, and after 2 years are shown. Regarding the conditions of 0 to 5° C., the results of purity measured by DSC at after 1 month, 2 months, and a half year are shown. As a comparison, commercially available NCA shown by the general formula (A) (manufactured by Isochem), the purity of which is more than 98 mol % based on the DSC measurement, was evaluated and shown as Comparison 1. This NCA has a residual chlorine concentration of 0.030 mass % and belongs to a lot with extremely low residual chlorine concentration in commercially available NCAs.

[1] = initial value of storage test at 0 to 5° C.
[2] = initial value of storage test at −20±5° C.

SMILES | Purity after purification [1] | Purity after purification [2] | Purity after 1 month from purification (storage at 0 to 5° C.) | Purity after 2 months from purification (storage at 0 to 5° C.) | Purity after a half year from purification (storage at 0 to 5° C.) | Purity after 1 year from purification (storage at −20±5° C.) | Purity after 2 years from purification (storage at −20±5° C.) | Purity after a half year from purification (storage at −20±5° C.) | long term storage stability (lowering of purity) at 0 to 5° C. (0 to 5° C., up to a half year) | long term storage stability (lowering of purity) at −20° C. (−20° C., up to 2 years)
O=C1CCCNC(=O)O1 [(R)] | 99.03 mol % | 99.03 mol % | 99.05 mol % | 99.04 mol % | 99.03 mol % | 99.06 mol % | 99.05 mol % | 99.07 mol % | – | –
O=C1CCNC(=O)O1 [(Q)] | 99.32 mol % | 99.32 mol % | 99.31 mol % | 99.31 mol % | 99.32 mol % | 99.33 mol % | 99.33 mol % | 99.33 mol % | – | –
CC(=O)N1CC(=O)OC1=O [(M)] | 99.22 mol % | 99.22 mol % | 99.23 mol % | 99.22 mol % | 99.24 mol % | 99.23 mol % | 99.23 mol % | 99.23 mol % | – | –
O=C1CNC(=O)O1 [(J)] | 99.10 mol % | 99.10 mol % | 99.12 mol % | 99.10 mol % | 99.08 mol % | 99.12 mol % | 99.10 mol % | 99.15 mol % | – | –
COCOCCCC1NC(=O)OC1=O (centres unmarked) [(D)] | 99.00 mol % | 99.00 mol % | 98.98 mol % | 99.00 mol % | 98.95 mol % | 99.00 mol % | 99.05 mol % | 98.95 mol % | – | –
O=C(CCC1NC(=O)OC1=O)OCc1ccccc1 (centres unmarked) [(B)] | 99.40 mol % | 99.40 mol % | 99.39 mol % | 99.41 mol % | 99.41 mol % | 99.41 mol % | 99.40 mol % | 99.40 mol % | – | –
O=C(CC1NC(=O)OC1=O)OCc1ccccc1 (centres unmarked) [(G)] | 99.25 mol % | 99.25 mol % | 99.24 mol % | 99.25 mol % | 99.26 mol % | 99.26 mol % | 99.25 mol % | 99.25 mol % | – | –
CC(C)C1NC(=O)OC1=O (centres unmarked) [(O)] | 98.80 mol % | 98.80 mol % | 98.77 mol % | 98.75 mol % | 98.73 mol % | 98.79 mol % | 98.79 mol % | 98.77 mol % | – | –
CC(C)(C)OC(=O)CC1NC(=O)OC1=O (centres unmarked) [(H)] | 99.18 mol % | 99.18 mol % | 99.19 mol % | 99.19 mol % | 99.18 mol % | 99.16 mol % | 99.16 mol % | 99.17 mol % | – | –
O=C1NC(Cc2ccccc2)C(=O)O1 (centres unmarked) [(N)] | 98.88 mol % | 98.88 mol % | 98.88 mol % | 98.86 mol % | 98.86 mol % | 98.86 mol % | 98.85 mol % | 98.85 mol % | – | –
O=C1NC(CCCOCc2ccccc2)C(=O)O1 (centres unmarked) [(E)] | 98.90 mol % | 98.90 mol % | 98.90 mol % | 98.88 mol % | 98.86 mol % | 98.88 mol % | 98.89 mol % | 98.89 mol % | – | –
CC(C)(C)OC(=O)N1CC(=O)OC1=O [(L)] | 99.05 mol % | 99.05 mol % | 99.07 mol % | 99.05 mol % | 99.07 mol % | 99.04 mol % | 99.05 mol % | 99.02 mol % | – | –
CC(C)(C)OC(=O)CCC1CC(=O)OC1=O (centres unmarked) [Comparison 1, reference compound] | 98.14 mol % | 98.14 mol % | <98 mol % | <98 mol % | <98 mol % | 98.02 mol % | <98 mol % | 98.06 mol % | lowered in 1 month | the purity was lowered in 2 years
CC(C)CC1NC(=O)OC1=O (centres unmarked) [(P)] | 98.91 mol % | 98.91 mol % | 98.93 mol % | 98.94 mol % | 98.94 mol % | 98.90 mol % | 98.91 mol % | 98.92 mol % | – | –
CN1CC(=O)OC1=O [(K)] | 98.94 mol % | 98.94 mol % | 98.93 mol % | 98.92 mol % | 98.90 mol % | 98.92 mol % | 98.93 mol % | 98.90 mol % | – | –
CC(C)(C)[Si](OCCC1NC(=O)OC1=O)(c1ccccc1)c1ccccc1 (centres unmarked) [(I)] | 99.35 mol % | 99.35 mol % | 99.35 mol % | 99.36 mol % | 99.36 mol % | 99.36 mol % | 99.36 mol % | 99.35 mol % | – | –
CC(C)(C)OCCCC1NC(=O)OC1=O (centres unmarked) [(F)] | 99.10 mol % | 99.10 mol % | 99.12 mol % | 99.10 mol % | 99.10 mol % | 99.12 mol % | 99.12 mol % | 99.12 mol % | – | –
CC(=O)OCCCC1NC(=O)OC1=O (centres unmarked) [(C)] | 99.20 mol % | 99.20 mol % | 99.22 mol % | 99.21 mol % | 99.19 mol % | 99.22 mol % | 99.21 mol % | 99.22 mol % | – | –
